Source: ChEMBL document CHEMBL1145099, “Aloisines, a new family of CDK/GSK-3 inhibitors. SAR study, crystal structure in complex with CDK2, enzyme selectivity, and cellular effects” (J Med Chem, 2003)

Experiments:
[1] = target: Cyclin-dependent kinase 5/CDK5 activator 1 (Homo sapiens, UniProt Q00535); experiment: Inhibitory activity against recombinant mammalian cyclin-dependent kinase 5 (p35 NCK5a) expressed in Escherichia coli
[2] = target: Glycogen synthase kinase-3 beta (Homo sapiens, UniProt P49841); experiment: Inhibition of glycogen synthase kinase-3 beta, purified from porcine brain or expressed in and purified from insect Sf9 cells; type: cell-based, Sus scrofa
[3] = target: CDK1/cyclin B (Marthasterias glacialis)

Cyclin-dependent kinase 5/CDK5 activator 1, sequence (Q00535 whole entry): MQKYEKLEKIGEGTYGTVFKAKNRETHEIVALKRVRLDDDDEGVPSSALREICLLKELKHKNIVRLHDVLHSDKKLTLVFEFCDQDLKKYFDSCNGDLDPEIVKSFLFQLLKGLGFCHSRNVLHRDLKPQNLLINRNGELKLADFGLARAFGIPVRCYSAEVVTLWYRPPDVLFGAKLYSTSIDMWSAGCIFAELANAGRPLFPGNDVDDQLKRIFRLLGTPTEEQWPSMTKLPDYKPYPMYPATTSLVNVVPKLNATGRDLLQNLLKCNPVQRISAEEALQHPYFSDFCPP
Cyclin-dependent kinase 5/CDK5 activator 1, sequence (Q15078 whole entry, further chain): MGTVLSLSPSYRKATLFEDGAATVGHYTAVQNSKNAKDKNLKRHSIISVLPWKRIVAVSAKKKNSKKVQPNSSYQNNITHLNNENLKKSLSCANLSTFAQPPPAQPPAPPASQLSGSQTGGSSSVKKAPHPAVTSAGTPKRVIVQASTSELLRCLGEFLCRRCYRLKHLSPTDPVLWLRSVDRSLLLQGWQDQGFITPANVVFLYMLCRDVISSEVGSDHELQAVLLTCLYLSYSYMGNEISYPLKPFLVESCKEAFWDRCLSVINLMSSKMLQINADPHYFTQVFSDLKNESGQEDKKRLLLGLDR
Glycogen synthase kinase-3 beta, sequence (P49841 whole entry): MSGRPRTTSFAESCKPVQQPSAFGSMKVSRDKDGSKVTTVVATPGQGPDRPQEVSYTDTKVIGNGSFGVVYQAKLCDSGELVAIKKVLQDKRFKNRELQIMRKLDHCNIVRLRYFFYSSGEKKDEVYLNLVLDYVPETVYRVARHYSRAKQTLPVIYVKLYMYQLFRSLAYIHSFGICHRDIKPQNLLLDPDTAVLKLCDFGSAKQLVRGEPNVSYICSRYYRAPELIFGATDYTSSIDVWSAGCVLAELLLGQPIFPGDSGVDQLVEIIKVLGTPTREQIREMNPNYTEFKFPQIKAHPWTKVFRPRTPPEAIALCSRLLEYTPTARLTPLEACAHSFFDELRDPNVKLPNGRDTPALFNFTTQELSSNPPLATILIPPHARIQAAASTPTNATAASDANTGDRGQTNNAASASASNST

Row | SMILES | IC50 [1] | IC50 [2] | IC50 [3]
1 | c1coc(-c2cc3[nH]ccnc-3n2)c1 | 9.3 µM | 15 µM | 12 µM
2 | c1ccc(-c2cc3[nH]ccnc-3n2)cc1 | 4 µM | 2.3 µM | 5 µM
3 | Fc1ccc(-c2cc3[nH]ccnc-3n2)cc1 | 1 µM | 1.9 µM | 2.3 µM
4 | Clc1ccc(-c2[nH]c3nccnc3c2CC2CCCCC2)cc1 | > 100 µM | 8 µM | 10 µM
5 | CCCCc1c(-c2ccc(Cl)cc2)[nH]c2nccnc12 | > 100 µM | 5.9 µM | 0.2 µM
6 | c1ccc(-c2cc3[nH]c4ccccc4nc-3n2)cc1 | > 100 µM | > 100 µM | > 100 µM
7 | Clc1ccc(C2(c3cc4[nH]ccnc-4n3)CC2)cc1 | 100 µM | 1 µM | 30 µM
8 | Cc1ccc(-c2cc3[nH]ccnc-3n2)cc1 | 10 µM | 2.6 µM | 3 µM
9 | Oc1cccc(-c2cc3[nH]ccnc-3n2)c1 |  |  | 2.5 µM
10 | CCCc1c(-c2ccc(OC)cc2)[nH]c2nccnc12 | 0.5 µM | 0.4 µM | 0.4 µM
11 | COc1ccc(-c2[nH]c3nccnc3c2C(C)C)cc1 | 2 µM | 0.5 µM | 
12 | Clc1ccc(-c2[nH]c3nccnc3c2Cc2ccccc2)cc1 | > 100 µM | 6.8 µM | 
13 | Cc1c[nH]c2cc(-c3ccccc3)nc-2n1 | 100 µM | > 100 µM | 69 µM
14 | COc1cc(-c2cc3[nH]ccnc-3n2)cc(OC)c1OC | > 100 µM | 85 µM | 100 µM
15 | COc1ccc(-c2[nH]c3nccnc3c2C)cc1OC | 1 µM | 2 µM | 1.1 µM
16 | c1csc(-c2cc3[nH]ccnc-3n2)c1 | 2 µM | 1.2 µM | 7 µM
17 | Oc1ccc(-c2[nH]c3nccnc3c2CC2CC2)cc1 | > 100 µM | 3 µM | 50 µM
18 | Cc1c(C2(c3ccc(Cl)cc3)CC2)[nH]c2nccnc12 | 100 µM | 18 µM | 
19 | c1c[nH]c2cc(-c3ccsc3)nc-2n1 | 1 µM | 0.8 µM | 2.3 µM
20 | Clc1cc(Cl)cc(-c2cc3[nH]ccnc-3n2)c1 | > 100 µM | > 100 µM | > 100 µM
21 | COc1ccc(-c2[nH]c3nccnc3c2CC2CC2)cc1 | > 100 µM | 1.1 µM | 1 µM
22 | CCCCCCCc1c(-c2ccc(OC)cc2)[nH]c2nccnc12 | > 100 µM | > 10 µM | 7 µM
23 | C=CCc1c(-c2ccc(OC)cc2)[nH]c2nccnc12 | 2 µM | 0.6 µM | 1 µM
24 | COc1ccc(-c2[nH]c3nccnc3c2CCCCl)cc1 | 3 µM | 2.5 µM | 
25 | COc1cc(OC)cc(-c2cc3[nH]ccnc-3n2)c1 | > 100 µM | 60 µM | 100 µM

Row | SMILES | IC50 [1] | IC50 [2] | IC50 [3]
26 | Clc1ccc(-c2cc3[nH]ccnc-3n2)cc1 |  |  | 1.8 µM
27 | COc1ccc(-c2cc3[nH]ccnc-3n2)cc1 | 4 µM | 1.1 µM | 2 µM
28 | CCCc1c(-c2ccc(O)cc2)[nH]c2nccnc12 | 1.2 µM | 1.8 µM | 25 µM
29 | FC(F)(F)c1ccc(-c2cc3[nH]ccnc-3n2)cc1 | > 100 µM | 7.2 µM | 6 µM
30 | Brc1ccc(-c2cc3[nH]ccnc-3n2)cc1 | > 100 µM | 6 µM | 
31 | CC(C)c1c(-c2ccc(Cl)cc2)[nH]c2nccnc12 | 13 µM | 0.75 µM | 0.85 µM
32 | COc1ccc(-c2[nH]c3nccnc3c2C)cc1 | 0.8 µM | 0.46 µM | 0.3 µM
33 | c1c[nH]c2cc(-c3ccc(C4OCCO4)cc3)nc-2n1 | 15 µM | 20 µM | 8 µM
34 | c1ccc(-c2cc3[nH]ccnc-3n2)nc1 | 53 µM | 15 µM | 21 µM
35 | CN(C)c1ccc(-c2cc3[nH]ccnc-3n2)cc1 | > 100 µM | 12 µM | 20 µM
36 | c1ccc(Cc2c(-c3ccccc3)[nH]c3nccnc23)cc1 | > 100 µM | 1 µM | 2 µM
37 | Cc1c(-c2ccc(OS(=O)(=O)N(C)C)cc2)[nH]c2nccnc12 | 0.9 µM | 0.5 µM | 0.7 µM
38 | Oc1ccccc1-c1cc2[nH]ccnc-2n1 | 3 µM | 6.5 µM | 2.5 µM
39 | COc1ccccc1-c1cc2[nH]ccnc-2n1 | 23 µM | 3.3 µM | 20 µM
40 | Cc1c(-c2ccc(O)cc2)[nH]c2nccnc12 | 0.2 µM | 0.52 µM | 0.25 µM
41 | N#Cc1ccc(-c2cc3[nH]ccnc-3n2)cc1 | 13 µM | 4.8 µM | 3 µM
42 | COc1ccc(-c2[nH]c3nccnc3c2CC2CCCCC2)cc1 | > 100 µM | 6.8 µM | 5 µM
43 | Cc1c(-c2ccc(Cl)cc2)[nH]c2nccnc12 | 5 µM | 1.7 µM | 
44 | Cn1c(-c2ccccc2)cc2nccnc21 |  | > 100 µM | 100 µM
45 | c1ccc2c(-c3cc4[nH]ccnc-4n3)cccc2c1 | 80 µM | 27 µM | > 100 µM
46 | COc1ccc(-c2cc3ccc[nH]c-3n2)cc1 |  |  | 60 µM
47 | COc1cccc(-c2cc3[nH]ccnc-3n2)c1 | 10 µM | 3.2 µM | 13 µM
48 | Oc1ccc(-c2cc3[nH]ccnc-3n2)cc1 | 1 µM | 1.2 µM | 1.2 µM
49 | CCCCc1c(-c2ccc(OC)cc2)[nH]c2nccnc12 [ALOISINE] | 1.5 µM | 0.92 µM | 
